Activity calls are given as the source filed them. The calls are words filed in the database; no cut-off is given here.
Tests used:
[1] = molecular target: T1, Mitogen-activated protein kinase 15 (Homo sapiens, UniProt Q8TD08); assay: Inhibition of Flag/His-tagged human MAPK15 incubated for 90 mins by TR-FRET assay
T1 sequence (Q8TD08 whole entry): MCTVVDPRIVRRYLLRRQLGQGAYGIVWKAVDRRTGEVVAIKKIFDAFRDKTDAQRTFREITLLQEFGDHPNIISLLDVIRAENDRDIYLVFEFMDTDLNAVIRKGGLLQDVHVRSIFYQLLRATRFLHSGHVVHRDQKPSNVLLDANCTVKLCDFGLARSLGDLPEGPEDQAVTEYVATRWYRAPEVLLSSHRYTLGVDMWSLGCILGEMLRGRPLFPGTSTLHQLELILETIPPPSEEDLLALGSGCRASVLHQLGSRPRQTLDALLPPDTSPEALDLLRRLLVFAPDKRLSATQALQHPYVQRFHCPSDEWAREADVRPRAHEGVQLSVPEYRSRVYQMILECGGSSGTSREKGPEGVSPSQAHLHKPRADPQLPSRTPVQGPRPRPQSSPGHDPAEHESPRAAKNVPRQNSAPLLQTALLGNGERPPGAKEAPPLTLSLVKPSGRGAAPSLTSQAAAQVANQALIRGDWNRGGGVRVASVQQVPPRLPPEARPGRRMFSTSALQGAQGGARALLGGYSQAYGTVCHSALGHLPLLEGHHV

[2] = molecular target: T2, Glycogen synthase kinase-3 alpha (Homo sapiens, UniProt P49840); assay: Inhibition of GST-tagged human GSK3A incubated for 90 mins by TR-FRET assay
T2 sequence (P49840 whole entry): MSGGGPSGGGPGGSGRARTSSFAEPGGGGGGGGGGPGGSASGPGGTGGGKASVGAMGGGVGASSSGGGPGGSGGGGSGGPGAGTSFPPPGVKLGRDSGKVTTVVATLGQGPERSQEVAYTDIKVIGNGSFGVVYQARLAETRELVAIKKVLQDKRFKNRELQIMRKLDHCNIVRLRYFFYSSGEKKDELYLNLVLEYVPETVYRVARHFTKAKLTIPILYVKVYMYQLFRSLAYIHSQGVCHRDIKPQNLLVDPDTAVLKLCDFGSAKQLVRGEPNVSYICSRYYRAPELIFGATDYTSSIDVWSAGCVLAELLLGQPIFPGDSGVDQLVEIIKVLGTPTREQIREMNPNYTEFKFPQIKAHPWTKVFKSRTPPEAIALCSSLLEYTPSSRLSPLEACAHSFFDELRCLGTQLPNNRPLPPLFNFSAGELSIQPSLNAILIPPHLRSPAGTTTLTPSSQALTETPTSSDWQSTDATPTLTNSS

[3] = molecular target: T3, Calcium/calmodulin-dependent protein kinase kinase 2 (Homo sapiens, UniProt Q96RR4); assay: Inhibition of GST-tagged human CAMKK2 incubated for 90 mins by TR-FRET assay
Target sequence in this assay (Q96RR4 whole entry): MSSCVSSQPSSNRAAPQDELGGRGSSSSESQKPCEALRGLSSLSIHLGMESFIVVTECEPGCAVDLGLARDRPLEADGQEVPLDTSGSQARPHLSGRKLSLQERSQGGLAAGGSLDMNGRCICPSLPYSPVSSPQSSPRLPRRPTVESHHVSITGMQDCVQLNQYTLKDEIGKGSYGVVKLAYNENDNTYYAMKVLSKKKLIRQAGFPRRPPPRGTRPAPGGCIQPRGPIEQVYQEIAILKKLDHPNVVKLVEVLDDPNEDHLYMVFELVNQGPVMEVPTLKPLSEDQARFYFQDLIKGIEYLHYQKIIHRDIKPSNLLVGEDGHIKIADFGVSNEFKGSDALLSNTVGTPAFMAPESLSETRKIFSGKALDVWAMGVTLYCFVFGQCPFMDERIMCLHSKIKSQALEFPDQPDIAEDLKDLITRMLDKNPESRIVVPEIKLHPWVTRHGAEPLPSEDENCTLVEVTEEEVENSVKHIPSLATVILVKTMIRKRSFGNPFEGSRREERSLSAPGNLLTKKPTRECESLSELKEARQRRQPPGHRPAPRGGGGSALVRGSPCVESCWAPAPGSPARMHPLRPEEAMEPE

[4] = molecular target: T4, Peripheral plasma membrane protein CASK (Homo sapiens) (UniProt O14936); assay: Inhibition of GST-tagged human CASK at 90 uM incubated for 90 mins by TR-FRET assay relative to control
T4 sequence (whole entry): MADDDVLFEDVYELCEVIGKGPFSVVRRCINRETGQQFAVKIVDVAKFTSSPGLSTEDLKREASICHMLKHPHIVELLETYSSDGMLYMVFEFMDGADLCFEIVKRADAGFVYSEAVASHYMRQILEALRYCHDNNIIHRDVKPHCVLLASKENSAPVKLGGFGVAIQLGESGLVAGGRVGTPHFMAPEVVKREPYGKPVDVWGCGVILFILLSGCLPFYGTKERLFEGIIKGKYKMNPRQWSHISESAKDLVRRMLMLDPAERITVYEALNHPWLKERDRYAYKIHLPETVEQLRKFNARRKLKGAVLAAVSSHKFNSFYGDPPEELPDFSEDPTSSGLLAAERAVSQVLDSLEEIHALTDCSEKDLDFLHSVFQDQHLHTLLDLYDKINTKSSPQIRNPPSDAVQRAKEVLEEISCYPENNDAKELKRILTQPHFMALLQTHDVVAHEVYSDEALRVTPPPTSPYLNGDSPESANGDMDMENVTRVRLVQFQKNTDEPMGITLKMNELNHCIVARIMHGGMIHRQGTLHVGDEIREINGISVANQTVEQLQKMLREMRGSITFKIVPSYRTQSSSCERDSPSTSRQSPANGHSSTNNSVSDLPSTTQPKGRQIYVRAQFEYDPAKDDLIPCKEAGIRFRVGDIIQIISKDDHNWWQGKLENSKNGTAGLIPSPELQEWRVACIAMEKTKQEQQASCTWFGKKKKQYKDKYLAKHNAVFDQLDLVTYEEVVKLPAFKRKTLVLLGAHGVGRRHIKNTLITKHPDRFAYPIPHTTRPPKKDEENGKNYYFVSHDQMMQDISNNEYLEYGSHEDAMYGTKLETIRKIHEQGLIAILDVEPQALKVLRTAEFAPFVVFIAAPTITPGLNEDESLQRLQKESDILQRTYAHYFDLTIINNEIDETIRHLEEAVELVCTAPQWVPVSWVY

[5] = molecular target: T5, Nuclear receptor subfamily 1 group I member 3 (Homo sapiens, UniProt Q14994); assay: Inhibition of GST-tagged human CAR LBD incubated for 90 mins by TR-FRET assay
T5 sequence (Q14994 whole entry): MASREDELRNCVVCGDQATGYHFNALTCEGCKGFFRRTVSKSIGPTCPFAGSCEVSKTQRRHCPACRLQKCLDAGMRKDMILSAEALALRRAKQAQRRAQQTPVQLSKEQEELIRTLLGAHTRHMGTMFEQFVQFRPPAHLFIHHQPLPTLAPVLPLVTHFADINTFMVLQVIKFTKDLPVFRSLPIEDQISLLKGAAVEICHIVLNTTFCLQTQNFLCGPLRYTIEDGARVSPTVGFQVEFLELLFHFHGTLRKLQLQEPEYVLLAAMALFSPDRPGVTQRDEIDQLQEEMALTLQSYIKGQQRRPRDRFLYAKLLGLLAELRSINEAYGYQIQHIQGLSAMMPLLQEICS

[6] = molecular target: T6, Dual specificity tyrosine-phosphorylation-regulated kinase 2 (Homo sapiens) (UniProt Q92630); assay: Binding affinity to GST-tagged human DYRK2 incubated for 90 mins by TR-FRET assay
T6 sequence (whole entry): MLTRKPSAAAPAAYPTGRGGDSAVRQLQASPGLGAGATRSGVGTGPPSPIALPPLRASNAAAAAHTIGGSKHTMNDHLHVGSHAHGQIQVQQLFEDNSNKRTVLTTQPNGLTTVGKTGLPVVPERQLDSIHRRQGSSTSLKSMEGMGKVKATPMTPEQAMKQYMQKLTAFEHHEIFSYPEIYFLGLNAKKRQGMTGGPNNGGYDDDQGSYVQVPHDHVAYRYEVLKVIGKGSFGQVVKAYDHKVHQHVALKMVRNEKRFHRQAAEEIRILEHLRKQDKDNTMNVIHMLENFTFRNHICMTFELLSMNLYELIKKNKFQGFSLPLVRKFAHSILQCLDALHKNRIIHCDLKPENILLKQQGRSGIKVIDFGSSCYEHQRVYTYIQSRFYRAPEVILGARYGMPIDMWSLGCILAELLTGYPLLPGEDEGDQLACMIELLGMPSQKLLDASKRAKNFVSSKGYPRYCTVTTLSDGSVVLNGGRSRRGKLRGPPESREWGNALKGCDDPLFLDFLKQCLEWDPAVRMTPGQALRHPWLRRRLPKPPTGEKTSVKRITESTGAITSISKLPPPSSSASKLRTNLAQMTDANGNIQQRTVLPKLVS

[7] = molecular target: T1, Mitogen-activated protein kinase 15; assay: Binding affinity to Flag/His-tagged human MAPK15 assessed as dissociation constant incubated for 90 mins by TR-FRET assay
[8] = molecular target: T5, Nuclear receptor subfamily 1 group I member 3; assay: Binding affinity to GST-tagged human CAR LBD assessed as fold change in FRET signal at 298.2 nM incubated for 90 mins by TR-FRET assay relative to control; conditions: 1.5 h, 0.2982 µM
[9] = molecular target: T5, Nuclear receptor subfamily 1 group I member 3; assay: Inhibition of GST-tagged human CAR LBD incubated for 90 mins in presence of Cy5-PGC1-alpha by HTRF co-activator assay
[10] = molecular target: T2, Glycogen synthase kinase-3 alpha; assay: Binding affinity to GST-tagged human GSK3A assessed as dissociation constant incubated for 90 mins by TR-FRET assay
[11] = molecular target: T5, Nuclear receptor subfamily 1 group I member 3; assay: Binding affinity to GST-tagged human CAR LBD assessed as dissociation constant incubated for 90 mins by TR-FRET assay
[12] = molecular target: T5, Nuclear receptor subfamily 1 group I member 3; assay: Binding affinity to GST-tagged human CAR LBD assessed as fold change in FRET signal at 125 nM incubated for 90 mins by TR-FRET assay relative to control; conditions: 1.5 h, 0.125 µM
CDK9/cyclin T1 [13] = molecular target: T7, CDK9/cyclin T1 (Homo sapiens, UniProt P50750); assay: Binding affinity to His-tagged human CDK9/CycT1 assessed as dissociation constant incubated for 90 mins by TR-FRET assay; type: protein-complex assay
T7 sequence (O60563 whole entry, the tested form may be a part): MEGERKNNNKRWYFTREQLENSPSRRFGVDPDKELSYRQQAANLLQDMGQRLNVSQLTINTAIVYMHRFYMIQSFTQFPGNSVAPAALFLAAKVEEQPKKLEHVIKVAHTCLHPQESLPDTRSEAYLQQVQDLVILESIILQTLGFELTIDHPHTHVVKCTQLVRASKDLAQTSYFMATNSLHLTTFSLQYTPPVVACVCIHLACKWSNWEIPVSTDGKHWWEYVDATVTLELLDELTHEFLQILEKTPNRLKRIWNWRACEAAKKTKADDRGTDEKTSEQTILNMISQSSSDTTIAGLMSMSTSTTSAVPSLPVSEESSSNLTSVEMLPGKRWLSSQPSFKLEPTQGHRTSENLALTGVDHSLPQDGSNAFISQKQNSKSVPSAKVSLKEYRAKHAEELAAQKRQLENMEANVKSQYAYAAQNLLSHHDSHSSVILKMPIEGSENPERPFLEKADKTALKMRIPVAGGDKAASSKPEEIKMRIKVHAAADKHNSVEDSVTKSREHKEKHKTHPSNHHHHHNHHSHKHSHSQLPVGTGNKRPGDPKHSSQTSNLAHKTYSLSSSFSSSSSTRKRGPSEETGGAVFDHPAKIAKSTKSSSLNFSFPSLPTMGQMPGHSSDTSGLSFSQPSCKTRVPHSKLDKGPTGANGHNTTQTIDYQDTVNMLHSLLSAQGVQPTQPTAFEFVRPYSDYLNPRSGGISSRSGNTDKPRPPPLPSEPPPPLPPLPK
T7 sequence (P50750 whole entry, the tested form may be a part): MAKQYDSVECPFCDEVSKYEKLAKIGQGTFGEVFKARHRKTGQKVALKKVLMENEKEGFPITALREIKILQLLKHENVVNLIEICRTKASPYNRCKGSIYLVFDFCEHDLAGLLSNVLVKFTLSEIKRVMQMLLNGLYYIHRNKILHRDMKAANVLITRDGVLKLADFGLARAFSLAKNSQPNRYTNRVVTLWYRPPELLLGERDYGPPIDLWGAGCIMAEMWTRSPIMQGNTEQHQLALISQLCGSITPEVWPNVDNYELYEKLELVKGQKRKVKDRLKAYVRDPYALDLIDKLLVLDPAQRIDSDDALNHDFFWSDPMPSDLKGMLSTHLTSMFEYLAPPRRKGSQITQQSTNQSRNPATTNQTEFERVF

[14] = molecular target: T5, Nuclear receptor subfamily 1 group I member 3; assay: Inhibition of GST-tagged human CAR LBD at […] incubated for 90 mins in presence of Cy5-PGC1-alpha by HTRF co-activator assay relative to control; conditions: 1.5 h, dose 3.3 µM, read-out: Imax
[15] = molecular target: T8, Peripheral plasma membrane protein CASK (Homo sapiens, UniProt O14936); assay: Binding affinity to GST-tagged human CASK assessed as dissociation constant incubated for 90 mins by TR-FRET assay
T8 sequence (O14936 whole entry): T4 sequence (whole entry)

[16] = molecular target: T3, Calcium/calmodulin-dependent protein kinase kinase 2; assay: Binding affinity to GST-tagged human CAMKK2 assessed as dissociation constant incubated for 90 mins by TR-FRET assay
Target sequence in this assay (Q96RR4 whole entry): as the sequence (Q96RR4 whole entry) above

[17] = molecular target: T5, Nuclear receptor subfamily 1 group I member 3; assay: Inhibition of GST-tagged human CAR LBD at 90 uM incubated for 90 mins in presence of Cy5-PGC1-alpha by HTRF co-activator assay relative to control; conditions: 1.5 h, read-out: Imax
[18] = molecular target: T5, Nuclear receptor subfamily 1 group I member 3; assay: Inhibition of GST-tagged human CAR LBD at 100 uM incubated for 90 mins by TR-FRET assay relative to control; conditions: 1.5 h, read-out: Imax
[19] = molecular target: T5, Nuclear receptor subfamily 1 group I member 3; assay: Inhibition of GST-tagged human CAR LBD at 3 uM incubated for 90 mins in presence of Cy5-PGC1-alpha by HTRF co-activator assay relative to control; conditions: 1.5 h, read-out: Imax
[20] = molecular target: T5, Nuclear receptor subfamily 1 group I member 3; assay: Inhibition of GST-tagged human CAR LBD assessed as FRET signal stability measured for 90 to 180 mins incubated for 90 mins by TR-FRET assay; conditions: time 90-180 min
[21] = molecular target: T5, Nuclear receptor subfamily 1 group I member 3; assay: Inhibition of GST-tagged human CAR LBD at 30 uM incubated for 90 mins in presence of Cy5-PGC1-alpha by HTRF co-activator assay relative to control; conditions: 1.5 h, read-out: Imax
[22] = molecular target: T5, Nuclear receptor subfamily 1 group I member 3; assay: Inhibition of GST-tagged human CAR LBD at 100 uM incubated for 90 mins in presence of Cy5-PGC1-alpha by HTRF co-activator assay relative to control; conditions: 1.5 h, read-out: Imax
CDK9/cyclin T1 [23] = molecular target: T7, CDK9/cyclin T1; assay: Inhibition of His-tagged human CDK9/CycT1 incubated for 90 mins by TR-FRET assay; type: protein-complex assay
[24] = molecular target: T3, Calcium/calmodulin-dependent protein kinase kinase 2; assay: Binding affinity to GST-tagged human CAMKK2 assessed as fold change in FRET signal at 30 uM incubated for 90 mins by TR-FRET assay relative to control
Target sequence in this assay (Q96RR4 2-588 limits assumed): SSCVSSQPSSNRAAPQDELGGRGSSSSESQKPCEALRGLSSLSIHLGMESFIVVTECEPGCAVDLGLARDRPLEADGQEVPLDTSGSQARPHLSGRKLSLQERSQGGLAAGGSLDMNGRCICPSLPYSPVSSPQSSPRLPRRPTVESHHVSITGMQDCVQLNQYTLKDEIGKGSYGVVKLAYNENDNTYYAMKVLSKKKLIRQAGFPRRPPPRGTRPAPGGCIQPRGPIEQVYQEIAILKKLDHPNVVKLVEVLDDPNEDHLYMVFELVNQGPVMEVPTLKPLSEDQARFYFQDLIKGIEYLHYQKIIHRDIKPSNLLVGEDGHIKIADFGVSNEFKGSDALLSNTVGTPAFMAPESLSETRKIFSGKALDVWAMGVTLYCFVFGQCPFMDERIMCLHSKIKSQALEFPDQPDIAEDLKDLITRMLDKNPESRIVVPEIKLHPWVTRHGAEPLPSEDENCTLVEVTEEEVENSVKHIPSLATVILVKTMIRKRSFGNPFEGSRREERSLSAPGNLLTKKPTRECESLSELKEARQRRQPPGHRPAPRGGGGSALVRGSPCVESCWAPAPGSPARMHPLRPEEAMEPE

[25] = molecular target: T4, Peripheral plasma membrane protein CASK (Homo sapiens); assay: Inhibition of GST-tagged human CASK at 30 uM incubated for 90 mins by TR-FRET assay relative to control
[26] = molecular target: CDK9/cyclin T1 (Homo sapiens) (UniProt O60563+P50750); assay: Inhibition of His-tagged human CDK9/CycT1 incubated for 90 mins by TR-FRET assay relative to control; type: protein-complex assay

COc1cc(F)ccc1-c1ncnc(Nc2cccc(C[S@](C)(=N)=O)c2)n1 [ATUVECICLIB]
IC50 [1]: 2600 nM | IC50 [2]: 29.1 nM | IC50 [3]: 1200 nM | inhibition [4]: 27.3%

O=S(=O)(c1ccccc1)N(CC(F)(F)F)c1ccc(C(O)(C(F)(F)F)C(F)(F)F)cc1 [T091317]
IC50 [5]: 651 nM

Cc1oc2ccccc2c1CNC(=O)NCc1cccs1
IC50 [5]: 260 nM

Cc1cc(C)n2c1C=C1C=CC(CCC(=O)N3CCC(C(=O)Nc4ncc(SCc5ncc(C(C)(C)C)o5)s4)CC3)=[N+]1[B-]2(F)F
Activity [6]: inactive | Kd [7]: 340 nM | fold change (FC) [8]: 9.1 | IC50 [9]: 224 nM | Kd [10]: 4.5 nM | Kd [11]: 300 nM | fold change (FC) [12]: 9.7 | Kd (CDK9/cyclin T1 [13]): 5.1 nM | inhibition at […] [14]: 95.9% | Kd [15]: 550 nM | Kd [16]: 530 nM

O=C(Nc1ccc2c(c1)N(C(=O)Cn1cccc1)c1ccccc1CC2)OC1CCCCC1
IC50 [5]: 12.8 nM

CN1CC[C@@H](c2c(O)cc(O)c3c(=O)cc(-c4ccccc4Cl)oc23)[C@@H]1CO
IC50 [1]: 706 nM | IC50 [2]: 270 nM | IC50 [3]: 6500 nM

Cn1cc(C2=C(c3cn(CCCSC(=N)N)c4ccccc34)C(=O)NC2=O)c2ccccc21 [BISINDOLYLMALEIMIDE IX]
IC50 [1]: 0.9 nM | IC50 [2]: 0.7 nM | IC50 [3]: 161 nM

CC(C)(C)c1cnc(CSc2cnc(NC(=O)C3CCNCC3)s2)o1 [BMS-387032]
inhibition at 90 µM [17]: 26.4% | EC50 [5]: 51100 nM | inhibition at 100 µM [18]: 50.8%

CC[C@H](Nc1nc(NCc2cnc(C)cc2C)c2ncn(C(C)C)c2n1)[C@@H](C)O [CYC-065]
IC50 [1]: 386 nM | IC50 [2]: 11100 nM | IC50 [3]: 13200 nM

Clc1ccc(-c2nc3sccn3c2/C=N/OCc2ccc(Cl)c(Cl)c2)cc1
inhibition at 3 µM [19]: 100% | inhibition (INH) [20]: Active

CN1CC[C@H](c2c(O)cc(O)c3c(=O)cc(-c4ccccc4Cl)oc23)[C@H](O)C1 [ALVOCIDIB]
IC50 [1]: 164 nM | Ki [1]: 120 nM | IC50 [3]: 296 nM | Ki [3]: 239 nM

CCOC(=O)Nc1ccc2c(c1)N(C(=O)CN(CC)CC)c1ccccc1CC2
IC50 [9]: 258 nM | inhibition at 30 µM [21]: 100% | IC50 [5]: 162 nM

C[C@]12CC[C@@H](O)C[C@@H]1CC[C@@H]1[C@@H]2CC[C@]2(C)C=CC[C@@H]12 [ANDROSTENOL]
inhibition at 100 µM [22]: 84.7% | IC50 [9]: 250 nM | IC50 [5]: 339 nM

CC(C)(C)c1cnc(CSc2cnc(NC(=O)C3CCN(CC(=O)NCCOCCOCCOCCNc4cccc5c4C(=O)N(C4CCC(=O)NC4=O)C5=O)CC3)s2)o1 (stereo unspecified)
IC50 (CDK9/cyclin T1 [23]): 5.6 nM | IC50 [9]: 6600 nM | IC50 [1]: 79.1 nM | IC50 [2]: 8.2 nM | IC50 [3]: 2700 nM | inhibition at 90 µM [17]: 75.4% | EC50 [5]: 3100 nM | inhibition at 100 µM [18]: 43.4%

COc1cc(N2CCOCC2)ccc1Nc1ncc(F)c(Nc2ccccc2NS(C)(=O)=O)n1
fold change (FC) [24]: 2.6 | inhibition [25]: 40.7% | IC50 [1]: 2800 nM | IC50 [2]: 20200 nM | IC50 [3]: 51.6 nM | inhibition [26]: < 20%
